Results as given in PubChem BioAssay AID1918942 (Molecular Pharmacology Branch, DTP, NCI, 2023).

Tested on: 743489-274-T-PDC complex spheroid viability
Assay: Anticancer human tumor 743489-274-T-PDC patient-derived renal cell carcinoma cell line growth inhibition
Conditions: for IC50: curve of first compound; for viability, T/C: stronger effect = lower value
From the text: Multicellular complex tumor spheroid response to LSD1 Inhibitor Iadademstat in combination with a variety of drugs and investigational agents in selected tumor cell lines
The current study was undertaken to assess response to LSD1 inhibitors in combination with standard-of-care drugs and investigational agents in solid tumor complex spheroid models as well as in the K-562 leukemia. Complex spheroids include a stromal component modeled by human endothelial cells (HUVEC) and fibroblasts modeled by human mesenchymal stem cells (MSCs). The concentration ranges selected for each drug and investigational agent were based upon clinically achievable concentrations if the clinical Cmax of the agent was known.
Compounds. The drugs and investigational agents used in this study are listed on Table 1. All of the agents used, including staurosporine (NSC755774) and gemcitabine (NSC613327), were obtained from the Developmental Therapeutics Program, NCI. FDA-approved anticancer drugs are available from the NCI at http://dtp.nci.nih.gov/branches/dscb/oncology_drugset_explanation.html. Drugs and investigational agents were >95% pure by proton nuclear magnetic resonance (NMR) and liquid chromatography/mass spectrometry (LC/MS). Stock solutions were prepared at 400x in DMSO, stored at -70 degrees C, and diluted in fresh medium prior to their use. The final concentration of DMSO in cell culture wells never exceeded 0.25% (v/v). The FDA-approved anticancer drug set is available from the Developmental Therapeutics Program at https://dtp.cancer.gov/organization/dscb/obtaining/available_plates.htm. All drugs and investigational agents were tested over a range starting from a high concentration at or near the clinical Cmax and decreasing in half-log increments. If the clinical Cmax for an agent had not been determined, the highest concentration tested was 10 microM.
Cell Lines. The patient-derived cancer cell (PDC) lines: 292921-168-R-J2-PDC, K24384-001-R-PDC, and 521955-158-R2-J5-PDC pancreatic carcinomas, 556581-035-R-J1 ovarian carcinoma, 324938-238-R-J1-PDC, 855422-203-R-J1-PDC and 883617-216-R-J1-PDC urothelial bladder carcinomas, 743489-274-T-PDC renal cell carcinoma, 138582-R-J1 Merkel cell tumor, K60290-347-R-J1 and K57222-313-R-J1-PDC glioblastomas, 653999-131-R-J2-PDC, LG0703-F948-PDC, and 349418-098-R-PDC non-small cell lung carcinomas, 885512-296-R-J2-PDC, 171881-019-R-J1-PDC breast carcinomas and 186277-243-T-J2-PDC and 233499-124-R-J2-PDC colon carcinomas were obtained from the NCI Patient-Derived Models Repository (PDMR, https://pdmr.cancer.gov). The established cell lines NCI/ADR-RES (RRID:CVCL_14520 and OVCAR-5 (RRID:CVCL_1628) ovarian carcinomas, 786-O (RRID:CVCL_1051) and A498 (RRID:CVCL_A498) renal cell carcinoma, NCI-H211 (ATCC, cat. CRL-5824; RRID:CVCL_1529), NCI-H196 (ATCC, cat. CRL-5823, RRID:CVCL_1509), SW 1271 (ATCC, cat. CRL-2177, RRID:CVCL_1716) and NCI-H1876 (ATCC, cat. CRL-5902, RRID:CVCL_1503) small cell lung carcinomas, MDA-MB-231 (RRID:CVCL_0062) and MDA-MB-468 (RRID:CVCL_0419)breast carcinomas (10-12). Pooled donor human umbilical vein endothelial cells (HUVEC, Lonza, cat. CC-2519) and human mesenchymal stem cells (hMSC, Lonza, cat. PT-2501) were purchased from Lonza (Walkersville, MD).
Cell Culture. All cells were maintained in an incubator at 37 degrees C and 5% CO2 with 95% humidity. The PDC lines were cultured according to standard operating procedures established by the NCI PDMR (https://pdmr.cancer.gov). Briefly all PDCs were thawed and cultured in Matrigel-coated flasks prepared with a working solution of 1X Ham's F-12 nutrient mix, without supplementation (Invitrogen, Waltham, MA, cat. 11765054), 100 U/mL penicillin-streptomycin (Invitrogen, cat. 15140122), and 2.5% Matrigel (Corning Inc., Corning, NY, cat. 354248) for the first three passages. […]

[1] = second compound 0.1 µM, first compound 0.000949 µM
[2] = second compound 0.1 µM, first compound 0.003 µM
[3] = second compound 0.1 µM, first compound 0.00949 µM
[4] = second compound 0.1 µM, first compound 0.03 µM
[5] = second compound 0.1 µM, first compound 0.0949 µM
[6] = second compound 0.1 µM, first compound 0.3 µM
[7] = second compound 0.316 µM, first compound 0.000949 µM
[8] = second compound 0.316 µM, first compound 0.003 µM
[9] = second compound 0.316 µM, first compound 0.00949 µM
[10] = second compound 0.316 µM, first compound 0.03 µM
[11] = second compound 0.316 µM, first compound 0.0949 µM
[12] = second compound 0.316 µM, first compound 0.3 µM
[13] = second compound 1 µM, first compound 0.000949 µM
[14] = second compound 1 µM, first compound 0.003 µM
[15] = second compound 1 µM, first compound 0.00949 µM
[16] = second compound 1 µM, first compound 0.03 µM
[17] = second compound 1 µM, first compound 0.0949 µM
[18] = second compound 1 µM, first compound 0.3 µM
[19] = second compound 3.16 µM, first compound 0.000949 µM
[20] = second compound 3.16 µM, first compound 0.003 µM
[21] = second compound 3.16 µM, first compound 0.00949 µM
[22] = second compound 3.16 µM, first compound 0.03 µM
[23] = second compound 3.16 µM, first compound 0.0949 µM
[24] = second compound 3.16 µM, first compound 0.3 µM
[25] = second compound 10 µM, first compound 0.000949 µM
[26] = second compound 10 µM, first compound 0.003 µM
[27] = second compound 10 µM, first compound 0.00949 µM
[28] = second compound 10 µM, first compound 0.03 µM
[29] = second compound 10 µM, first compound 0.0949 µM
[30] = second compound 10 µM, first compound 0.3 µM
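Further: spheroids exposed to compounds for 7 days before readout.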
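Wherever viability, T/C is given: 100% = DMSO vehicle control wells.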

`CCc1c2c(nc3ccc(O)cc13)-c1cc3c(c(=O)n1C2)COC(=O)[C@]3(O)CC` + NC1CC1c1ccc(-c2cccc(O)c2)cc1 was tested, and the IC50 (second compound 0.1 µM) was 4.88 nM, the IC50 (second compound 0.316 µM) was 2.4 nM and the IC50 (second compound 1 µM) was 2.71 nM. The IC50 (second compound 3.16 µM) was 2.26 nM, the IC50 (second compound 10 µM) was 3.52 nM and the viability, T/C [1] was 62.5%. For the same compound, the viability, T/C [2] was 52.5%, the viability, T/C [3] was 47.3% and the viability, T/C [4] was 33.7%. The viability, T/C [5] was 36.4%, the viability, T/C [6] was 33.5% and the viability, T/C [7] was 54.3%. For the same compound, the viability, T/C [8] was 51.7%, the viability, T/C [9] was 45.5% and the viability, T/C [10] was 35%. The viability, T/C [11] was 36.7%, the viability, T/C [12] was 40.2% and the viability, T/C [13] was 60.5%. It also gave a viability, T/C [14] of 51.9%, a viability, T/C [15] of 41.3% and a viability, T/C [16] of 39%. It also gave a viability, T/C [17] of 43.9%, a viability, T/C [18] of 42.7% and a viability, T/C [19] of 57%. The viability, T/C [20] was 48.7%, the viability, T/C [21] was 42.3% and the viability, T/C [22] was 33.5%. For the same compound, the viability, T/C [23] was 36.7%, the viability, T/C [24] was 34.5% and the viability, T/C [25] was 58.7%. It also gave a viability, T/C [26] of 50.8%, a viability, T/C [27] of 42.5% and a viability, T/C [28] of 35.3%. The viability, T/C [29] was 32% and the viability, T/C [30] was 38.8%.

`Nc1ccn(C2OC(CO)C(O)C2(F)F)c(=O)n1` (stereo not given) + NC1CC1c1ccc(-c2cccc(O)c2)cc1 showed an IC50 (second compound 0.1 µM) greater than 300 nM, an IC50 (second compound 0.316 µM) of 46.5 nM and an IC50 (second compound 1 µM) of 153 nM. It also gave an IC50 (second compound 3.16 µM) of 25.5 nM, an IC50 (second compound 10 µM) of 110 nM and a viability, T/C [1] of 62.5%. For the same compound, the viability, T/C [2] was 58.5%, the viability, T/C [3] was 95.2% and the viability, T/C [4] was 58%. The viability, T/C [5] was 63.7%, the viability, T/C [6] was 48.5% and the viability, T/C [7] was 67.2%. The viability, T/C [8] was 56.3%, the viability, T/C [9] was 99.8% and the viability, T/C [10] was 51.4%. For the same compound, the viability, T/C [11] was 51.2%, the viability, T/C [12] was 44.2% and the viability, T/C [13] was 57.1%. For the same compound, the viability, T/C [14] was 51.7%, the viability, T/C [15] was 87% and the viability, T/C [16] was 53.9%. The viability, T/C [17] was 46.5%, the viability, T/C [18] was 47.1% and the viability, T/C [19] was 58.4%. It also gave a viability, T/C [20] of 62.2%, a viability, T/C [21] of 97.8% and a viability, T/C [22] of 46.3%. For the same compound, the viability, T/C [23] was 44%, the viability, T/C [24] was 48.4% and the viability, T/C [25] was 64.9%. It also gave a viability, T/C [26] of 51.4%, a viability, T/C [27] of 87.2% and a viability, T/C [28] of 47.6%. It also gave a viability, T/C [29] of 46.2% and a viability, T/C [30] of 44.9%.

In the case of `O=C(c1cc(Cc2n[nH]c(=O)c3ccccc23)ccc1F)N1CCN(C(=O)C2CC2)CC1` + NC1CC1c1ccc(-c2cccc(O)c2)cc1, the IC50 (second compound 0.1 µM) is reported as greater than 10000 nM, the IC50 (second compound 0.316 µM) is reported as greater than 10000 nM and the IC50 (second compound 1 µM) is reported as greater than 10000 nM. The IC50 (second compound 3.16 µM) was greater than 10000 nM, the IC50 (second compound 10 µM) was greater than 10000 nM and the viability, T/C (second compound 0.1 µM, first compound 0.0316 µM) was 112%. The viability, T/C (second compound 0.1 µM, first compound 0.1 µM) was 115%, the viability, T/C (second compound 0.1 µM, first compound 0.316 µM) was 106% and the viability, T/C (second compound 0.1 µM, first compound 1 µM) was 113%. For the same compound, the viability, T/C (second compound 0.1 µM, first compound 3.16 µM) was 95.7%, the viability, T/C (second compound 0.1 µM, first compound 10 µM) was 92.5% and the viability, T/C (second compound 0.316 µM, first compound 0.0316 µM) was 105%. It also gave a viability, T/C (second compound 0.316 µM, first compound 0.1 µM) of 110%, a viability, T/C (second compound 0.316 µM, first compound 0.316 µM) of 132% and a viability, T/C (second compound 0.316 µM, first compound 1 µM) of 97.4%. For the same compound, the viability, T/C (second compound 0.316 µM, first compound 3.16 µM) was 107%, the viability, T/C (second compound 0.316 µM, first compound 10 µM) was 115% and the viability, T/C (second compound 1 µM, first compound 0.0316 µM) was 117%. It also gave a viability, T/C (second compound 1 µM, first compound 0.1 µM) of 104%, a viability, T/C (second compound 1 µM, first compound 0.316 µM) of 114% and a viability, T/C (second compound 1 µM, first compound 1 µM) of 93.8%. The viability, T/C (second compound 1 µM, first compound 3.16 µM) was 93.3%, the viability, T/C (second compound 1 µM, first compound 10 µM) was 94.7% and the viability, T/C (second compound 3.16 µM, first compound 0.0316 µM) was 98.1%. For the same compound, the viability, T/C (second compound 3.16 µM, first compound 0.1 µM) was 103%, the viability, T/C (second compound 3.16 µM, first compound 0.316 µM) was 117% and the viability, T/C (second compound 3.16 µM, first compound 1 µM) was 106%. The viability, T/C (second compound 3.16 µM, first compound 3.16 µM) was 100%, the viability, T/C (second compound 3.16 µM, first compound 10 µM) was 99.3% and the viability, T/C (second compound 10 µM, first compound 0.0316 µM) was 118%. It also gave a viability, T/C (second compound 10 µM, first compound 0.1 µM) of 121%, a viability, T/C (second compound 10 µM, first compound 0.316 µM) of 120% and a viability, T/C (second compound 10 µM, first compound 1 µM) of 120%. It also gave a viability, T/C (second compound 10 µM, first compound 3.16 µM) of 95.8% and a viability, T/C (second compound 10 µM, first compound 10 µM) of 94.2%.
